“And” between values parts separate entries of the source, which are not always exact repeats. Identical values can stand only once.
Columns and labels:
[1] = Storage stability: concentration / degradation of compound of Formula I in composition; type: physicochemical; details: for 2W/54° C. analysis (% of 10° C.): non-aqueous composition, 2 weeks at 54° C.
From the text: As used herein, the term “stable” when used in connection with chemical stability, e.g. chemically stable, means that the composition meets the chemical stability standards set forth by the Food and Agriculture Organization of the United Nations (FAO) in the Manual on Development and Use of FAO and WHO Specification for Pesticides (First Edition—Third Revision) (the “FAO/WHO Manual”) (available at http://www.fao.org/agriculture/crops/thematic-sitemap/theme/pests/jmps/manual/en/), the entire content of which is hereby incorporate by reference into the subject application. […] The amount of degradation permitted before the degradation is considered to be significant depends on the concentration of the active ingredients in the composition.
The physical and chemical stability of composition of Example 1 were tested under various conditions including CIPAC conditions.

[2] = test system: Zymoseptoria tritici strain Mg Tri-R6; assay: Fungicidal efficacy on treated wheat leaves inoculated with Z. tritici (AUDPC, intensity of infection); type: in vivo; details: 21 dpi
Procedure: Wheat crop (Winter wheat plants cv. Alixan (Limagrain) at the BBCH 12 growth stage) was treated with compositions comprising the compound of Formula I and adjuvants in different concentrations as built-in composition and/or as tank mix application.
All the tested compositions and mixtures were prepared in a volume of water corresponding to 200 L/ha and used 3 hours after preparation.
The SC composition of Example 1 was mixed with Trycol® (0.2 or 0.4 L per hectare) or Silwet (0.01 L per hectare) which were added as tank mix in 200 L volume of water.
The compositions and mixtures were applied with a hand sprayer at operating pressure of 2 bars. Three replicates (pots) of 6 wheat plants each were used for each condition tested.
After treatment, wheat plants were left to dry at room temperature for 1 hour and then incubated in a climatic chamber: Temperature of 24° C. day/18° C. night—Photoperiod of 16 h light/8 h dark and a Relative Humidity of 65%.
Fragments of the first leaf are cut and transferred in Petri dish containing adapted water agar (6 leaf fragments per Petri dish). Fragments are inoculated with a calibrated pycnospores suspension of Z. tritici strain Mg Tri-R6. […]
After incubation time of 21 days, the intensity of the infection, which is the surface of colonized leaf by Z. tritici strain, is assessed (quantitative criteria). The fungicidal efficacy on each composition is then determined in percent of the untreated control. […]
Disease assessments were carried out 21 days post inoculation (dpi) by measuring the length of the necrosis of the leaf fragment. The intensity of infection was then determined in percent of the total length of the leaf fragment.
The efficacy was calculated based on the Area Under the Disease Progress Curve (AUDPC) which is a quantitative measure of disease intensity over time. […]
The fungicide efficacies were determined from the AUDPC values and expressed in percent of the untreated control.

[3] = Water content of composition; type: physicochemical; details: non-aqueous composition
From the text: As used herein, the term “water content” when used in connection with a composition, a mixture, or a component in the composition or mixture refers to the amount of free water in the composition, mixture or component of the composition or mixture and the water molecules chemically bound to another compound, such as water molecules in a hydrate.

[4] = 20% Hydrate and 80% Form I Polymorph
[5] = 45% Hydrate, and 55% Form I Polymorph

| Compound | degradation of the compound of Formula I ([1]; 8 weeks of storage at 40° C., with Attagel 50 (0.5%) and Bentone SD-1 (0.5%)) [%] | degradation of the compound of Formula I ([1]; 8 weeks of storage at 40° C., without Attagel 50 and Bentone SD-1) | degradation of the compound of Formula I ([1]; non-aqueous composition with water scavenger) [%] | degradation of the compound of Formula I ([1]; non-aqueous composition without water scavenger) | fungicidal efficacy compared to application without adjuvant ([2]; SC composition tank mixed with Silwet® (0.01 L/ha), wheat cv. Alixan) | fungicidal efficacy compared to application without adjuvant ([2]; SC composition tank mixed with Trycol® (0.2 or 0.4 L/ha), wheat cv. Alixan) | fungicidal efficacy compared to application without adjuvant ([2]; two adjuvants: Silwet® or Agnique® BP 420 with PVP or VP/VA, 10 g a.i./ha) | 2W/54° C. analysis (% of 10° C.) [1, 4] | 2W/54° C. analysis (% of 10° C.) [1, 5] | % Water Content [3, 4] | % Water Content [3, 5] [%] |
| --- | --- | --- | --- | --- | --- | --- | --- | --- | --- | --- | --- |
| Cc1ccc(S(=O)(=O)n2cc(F)c(=N)n(C)c2=O)cc1 [compound of Formula I, 5-fluoro-4-imino-3-methyl-1-tosyl-3,4-dihydropyrimidin-2(1H)-one] | 4 | 7-8% | ≤ 5 | 5-10% | increased the efficacy and the effective fungicidal activity | increased the efficacy and the effective fungicidal activity | increased the efficacy and the effective fungicidal activity |  |  |  |  |
| Cc1ccc(S(=O)(=O)n2cc(F)c(=N)n(C)c2=O)cc1 [Hydrate I, 5-fluoro-4-imino-3-methyl-1-tosyl-3,4-dihydropyrimidin-2(1H)-one] |  |  |  |  |  |  |  | 88.5 % of 10 °C and 88.7 % of 10 °C | 89.3 % of 10 °C and 88.6 % of 10 °C | 0.24% and 0.22% | 0.35 |
